target: DNA polymerase theta (Homo sapiens, UniProt O75417); experiment: Polθ ATPase Enzymatic Assay (0.5 nM Enzyme Concentration)
Experimental: Following pre-incubation with inhibitors, DNA (Fork C) at 20 nM and ATP at 100 μM are added to start the reaction. Enzymatic reaction proceeds at rt for 180 min ATP consumption is measured using the ADP-Glo assay from Promega.

Sequence of DNA polymerase theta (O75417 whole entry): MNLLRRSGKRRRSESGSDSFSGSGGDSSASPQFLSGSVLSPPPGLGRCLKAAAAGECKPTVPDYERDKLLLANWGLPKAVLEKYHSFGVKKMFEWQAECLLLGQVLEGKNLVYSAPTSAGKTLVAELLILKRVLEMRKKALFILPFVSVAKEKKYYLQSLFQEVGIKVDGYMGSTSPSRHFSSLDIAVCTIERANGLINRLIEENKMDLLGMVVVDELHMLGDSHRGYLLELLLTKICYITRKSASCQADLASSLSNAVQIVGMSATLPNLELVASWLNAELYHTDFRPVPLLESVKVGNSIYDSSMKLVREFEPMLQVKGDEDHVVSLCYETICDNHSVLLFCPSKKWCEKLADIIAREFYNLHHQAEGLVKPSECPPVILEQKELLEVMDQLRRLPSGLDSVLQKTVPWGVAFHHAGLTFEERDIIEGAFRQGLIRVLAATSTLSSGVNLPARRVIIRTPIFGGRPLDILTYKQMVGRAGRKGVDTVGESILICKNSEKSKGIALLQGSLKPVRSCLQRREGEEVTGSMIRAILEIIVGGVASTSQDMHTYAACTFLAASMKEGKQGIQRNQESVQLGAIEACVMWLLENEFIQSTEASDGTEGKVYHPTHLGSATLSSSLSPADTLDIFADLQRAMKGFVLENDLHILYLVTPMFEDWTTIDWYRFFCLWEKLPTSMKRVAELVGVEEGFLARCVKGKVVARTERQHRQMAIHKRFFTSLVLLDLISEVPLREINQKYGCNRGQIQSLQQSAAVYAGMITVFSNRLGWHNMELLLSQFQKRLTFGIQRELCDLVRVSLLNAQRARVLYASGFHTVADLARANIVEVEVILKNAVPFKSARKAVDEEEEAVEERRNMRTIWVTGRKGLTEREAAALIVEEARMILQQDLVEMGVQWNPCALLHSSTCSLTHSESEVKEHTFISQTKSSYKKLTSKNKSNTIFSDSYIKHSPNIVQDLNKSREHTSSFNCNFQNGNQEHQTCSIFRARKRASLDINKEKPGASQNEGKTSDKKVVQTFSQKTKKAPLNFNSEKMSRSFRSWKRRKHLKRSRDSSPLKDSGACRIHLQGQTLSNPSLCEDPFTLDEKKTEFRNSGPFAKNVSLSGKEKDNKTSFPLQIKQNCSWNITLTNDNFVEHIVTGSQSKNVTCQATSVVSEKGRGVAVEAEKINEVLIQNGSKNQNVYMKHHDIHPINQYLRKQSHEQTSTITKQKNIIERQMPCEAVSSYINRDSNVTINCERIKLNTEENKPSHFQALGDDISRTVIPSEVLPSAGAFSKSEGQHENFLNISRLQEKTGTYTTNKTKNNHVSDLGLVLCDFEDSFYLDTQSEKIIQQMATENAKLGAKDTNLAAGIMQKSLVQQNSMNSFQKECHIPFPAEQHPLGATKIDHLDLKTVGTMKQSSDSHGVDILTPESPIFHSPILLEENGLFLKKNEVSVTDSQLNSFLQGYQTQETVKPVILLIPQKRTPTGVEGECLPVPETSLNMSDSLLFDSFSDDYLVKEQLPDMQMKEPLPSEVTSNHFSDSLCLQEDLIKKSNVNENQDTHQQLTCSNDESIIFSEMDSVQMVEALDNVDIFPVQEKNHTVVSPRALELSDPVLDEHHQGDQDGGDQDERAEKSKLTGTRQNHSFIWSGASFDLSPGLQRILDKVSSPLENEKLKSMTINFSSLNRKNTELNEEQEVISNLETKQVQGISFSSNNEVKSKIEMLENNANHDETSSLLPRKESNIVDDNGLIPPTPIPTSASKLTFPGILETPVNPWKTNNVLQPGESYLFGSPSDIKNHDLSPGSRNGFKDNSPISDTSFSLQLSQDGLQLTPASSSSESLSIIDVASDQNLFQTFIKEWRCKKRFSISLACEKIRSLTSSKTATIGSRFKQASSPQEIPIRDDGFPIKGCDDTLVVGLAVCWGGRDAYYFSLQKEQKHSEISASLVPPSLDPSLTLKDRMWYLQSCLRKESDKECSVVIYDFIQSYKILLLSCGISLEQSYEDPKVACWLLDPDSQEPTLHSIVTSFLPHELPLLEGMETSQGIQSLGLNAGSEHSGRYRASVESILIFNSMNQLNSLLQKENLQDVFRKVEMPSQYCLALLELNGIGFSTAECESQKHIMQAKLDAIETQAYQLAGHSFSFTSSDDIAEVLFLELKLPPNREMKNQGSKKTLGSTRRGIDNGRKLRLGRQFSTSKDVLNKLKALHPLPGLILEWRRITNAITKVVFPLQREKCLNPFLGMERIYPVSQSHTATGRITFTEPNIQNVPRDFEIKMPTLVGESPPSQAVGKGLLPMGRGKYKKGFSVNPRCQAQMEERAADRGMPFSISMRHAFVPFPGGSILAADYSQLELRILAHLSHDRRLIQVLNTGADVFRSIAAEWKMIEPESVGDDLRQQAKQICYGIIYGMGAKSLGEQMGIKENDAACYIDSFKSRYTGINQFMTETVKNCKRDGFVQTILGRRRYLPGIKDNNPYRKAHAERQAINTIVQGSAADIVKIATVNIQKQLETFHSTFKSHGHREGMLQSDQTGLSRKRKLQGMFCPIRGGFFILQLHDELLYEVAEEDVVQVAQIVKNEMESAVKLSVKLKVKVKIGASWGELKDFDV

Row | SMILES | IC50
1 | COc1cnc(Cl)cc1-c1cnccc1C(=O)Nc1ncc(C#CC2CC2)s1 [US20250026748, Compound 38] | 1.1 nM
2 | COc1cnc(C(F)F)cc1-c1cc(-c2ccn(C)n2)ncc1C(=O)Nc1nnc(C#Cc2cc(C)[nH]n2)s1 [US20250026748, Compound 370] | 2.9 nM
3 | COc1cnc(C(F)F)cc1-c1nc(-c2ccn(C)n2)cnc1C(=O)Nc1nnc(C#CC2CC2)s1 [US20250026748, Compound 140] | 38 nM
4 | COc1cnc(Cl)cc1-c1cc(-c2nnc(C)o2)ccc1C(=O)Nc1nnc(C#CC2CC2)s1 [US20250026748, Compound 305] | 0.38 nM

The remaining lines, values ahead:

Row | IC50 | SMILES
5 | 0.37 nM | COc1ccc(Cl)cc1-c1cnccc1C(=O)Nc1nnc(C#CC2CC2)s1 [US20250026748, Compound 57]
6 | 1.9 nM | COc1ccc(Cl)cc1-c1cn(Cc2nccs2)c(=O)cc1C(=O)Nc1nnc(C#CC2CC2)s1 [US20250026748, Compound 63]
7 | 12 nM | COc1ccc(C(F)(F)F)cc1-c1cn(C)c(=O)cc1C(=O)Nc1nnc(C#CC2CCOC2)s1 (configuration not stated) [US20250026748, Compound 340]

Source: BindingDB's records for patent US20250026748 (Repare Therapeutics, 2025)
